Measured values: patent US20170045513A1, “METHODS OF DIAGNOSING CELIAC DISEASE USING IP-10” (ImmusanT, Inc., priority 2014, published 2017)
Non-standard residues stand in square brackets, D forms with d. pGlu = O=C1CC[C@@H](C(=O)O)N1

Assays:
Format in all cases: cell-based, human
[1] = tested on: gluten-reactive T cells; test: Cytokine release assays taken together (IFNγ ELISpot, whole blood IFNγ and IP-10, in-tube IFNγ ELISA); conditions: for cytokine release / immunogenicity of individual peptide: HLA-DQ2.5+ celiac disease subjects after gluten challenge; for activity relative to Peptide 14 in the cytokine release assays / rank of activity among individual gluten peptides: blood collected after oral gluten challenge
Method in brief: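 Whole blood with peptides (P3 0.05-50 μg/mL; P13/P14 0.025-25 μM; […]), 24 h, 37 °C; plasma IFNγ/IP-10 by multiplex beads. Tube assay: 1 mL blood with P3 or CEF, 24 h, plasma IFNγ ELISA; elevated if >7.2 pg/mL above medium tube and SI >1.25. ELISpot overnight on fresh PBMC.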

[2] = tested on: gluten-reactive T cells; test: 96-well plate whole blood cytokine release, IFNγ by MAGPIX multiplex bead assay; conditions: for Percent of maximal response to individual gluten peptides, IFNg: after oral gluten challenge; for IFNγ WB MAGPIX % max Mean: n = 8, blood after oral gluten challenge, individual peptides 5 μM (Peptide 2* of P14, Pepscan: 10 μg/mL (5.45 μM))
[3] = tested on: gluten-reactive T cells; test: Overnight IFNγ ELISpot assay with fresh PBMC; conditions: for Percent of maximal response to individual gluten peptides, ELISp: after oral gluten challenge; for IFNγ ELISpot % max Mean: n = 5, blood after oral gluten challenge, individual peptides 5 μM (Peptide 2* of P14, Pepscan: 10 μg/mL (5.45 μM))
Method in brief: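 Read-out is IFNγ spot-forming units per well, counted automatically after overnight culture of fresh PBMC (0.4 million/well) with single peptides (duplicate) or pools (triplicate). Donors: HLA-DQ2.5+ celiac patients on gluten-free diet, bled pre- and day 6 after 3-day oral gluten challenge.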

Substance	cytokine release / immunogenicity of individual peptide [1]	Percent of maximal response to individual gluten peptides, IFNg ([2]; Subject 2, Max. 116 pg/mL)	Percent of maximal response to individual gluten peptides, IFNg ([2]; Subject 3, Max. 799 pg/mL)	Percent of maximal response to individual gluten peptides, IFNg ([2]; Subject 4, Max. 136 pg/mL)	Percent of maximal response to individual gluten peptides, IFNg ([2]; Subject 6, Max. 72 pg/mL)	Percent of maximal response to individual gluten peptides, IFNg ([2]; Subject 7, Max. 17 pg/mL)	Percent of maximal response to individual gluten peptides, IFNg ([2]; Subject 8, Max. 47 pg/mL)	Percent of maximal response to individual gluten peptides, IFNg ([2]; Subject 9, Max. 67 pg/mL)	Percent of maximal response to individual gluten peptides, IFNg ([2]; Subject 10, Max. 229 pg/mL)	IFNγ WB MAGPIX % max Mean [2] [% max]	Percent of maximal response to individual gluten peptides, ELISp ([3]; Subject 3, Max. 18 SFU)	Percent of maximal response to individual gluten peptides, ELISp ([3]; Subject 4, Max. 36 SFU)	Percent of maximal response to individual gluten peptides, ELISp ([3]; Subject 6, Max. 16 SFU)	Percent of maximal response to individual gluten peptides, ELISp ([3]; Subject 8, Max. 17 SFU)	Percent of maximal response to individual gluten peptides, ELISp ([3]; Subject 10, Max. 11 SFU)	IFNγ ELISpot % max Mean [3] [% max]	activity relative to Peptide 14 in the cytokine release assays [1]	rank of activity among individual gluten peptides [1]
(pE)QPFPQPEQPFSQQ-amide ([pGlu]QPFPQPEQPFSQQ-NH2; SMILES NC(=O)CC[C@H](NC(=O)[C@H](CCC(N)=O)NC(=O)[C@H](CO)NC(=O)[C@H](Cc1ccccc1)NC(=O)[C@@H]1CCCN1C(=O)[C@H](CCC(N)=O)NC(=O)[C@H](CCC(=O)O)NC(=O)[C@@H]1CCCN1C(=O)[C@H](CCC(N)=O)NC(=O)[C@@H]1CCCN1C(=O)[C@H](Cc1ccccc1)NC(=O)[C@@H]1CCCN1C(=O)[C@H](CCC(N)=O)NC(=O)[C@@H]1CCC(=O)N1)C(N)=O) [Peptide 7]	weak or absent	60 % of max	2 % of max	8 % of max	0 % of max	0 % of max	0 % of max	0 % of max	1 % of max	9	0 % of max	11 % of max	6 % of max	0 % of max	9 % of max	5		
(pE)QPFPQPEQPIPVQPEQS-amide ([pGlu]QPFPQPEQPIPVQPEQS-NH2; SMILES CC[C@H](C)[C@H](NC(=O)[C@@H]1CCCN1C(=O)[C@H](CCC(N)=O)NC(=O)[C@H](CCC(=O)O)NC(=O)[C@@H]1CCCN1C(=O)[C@H](CCC(N)=O)NC(=O)[C@@H]1CCCN1C(=O)[C@H](Cc1ccccc1)NC(=O)[C@@H]1CCCN1C(=O)[C@H](CCC(N)=O)NC(=O)[C@@H]1CCC(=O)N1)C(=O)N1CCC[C@H]1C(=O)N[C@H](C(=O)N[C@@H](CCC(N)=O)C(=O)N1CCC[C@H]1C(=O)N[C@@H](CCC(=O)O)C(=O)N[C@@H](CCC(N)=O)C(=O)N[C@@H](CO)C(N)=O)C(C)C) [Peptide 4]		33 % of max	13 % of max	24 % of max	1 % of max	1 % of max	9 % of max	29 % of max	11 % of max	15	17 % of max	44 % of max	19 % of max	12 % of max	27 % of max	24	from one-half to one-eighth as active as Peptide 14	
(pE)PEQPFPEQPIPEQPQPYP-amide ([pGlu]PEQPFPEQPIPEQPQPYP-NH2; SMILES CC[C@H](C)[C@H](NC(=O)[C@@H]1CCCN1C(=O)[C@H](CCC(N)=O)NC(=O)[C@H](CCC(=O)O)NC(=O)[C@@H]1CCCN1C(=O)[C@H](Cc1ccccc1)NC(=O)[C@@H]1CCCN1C(=O)[C@H](CCC(N)=O)NC(=O)[C@H](CCC(=O)O)NC(=O)[C@@H]1CCCN1C(=O)[C@@H]1CCC(=O)N1)C(=O)N1CCC[C@H]1C(=O)N[C@@H](CCC(=O)O)C(=O)N[C@@H](CCC(N)=O)C(=O)N1CCC[C@H]1C(=O)N[C@@H](CCC(N)=O)C(=O)N1CCC[C@H]1C(=O)N[C@@H](Cc1ccc(O)cc1)C(=O)N1CCC[C@H]1C(N)=O) [Peptide 14]		53 % of max	100 % of max	100 % of max	100 % of max	99 % of max	100 % of max	98 % of max	100 % of max	94	100 % of max	100 % of max	100 % of max	100 % of max	100 % of max	100		most active
(pE)LQPFPQPELPYPQPQ-amide ([pGlu]LQPFPQPELPYPQPQ-NH2; SMILES CC(C)C[C@H](NC(=O)[C@@H]1CCC(=O)N1)C(=O)N[C@@H](CCC(N)=O)C(=O)N1CCC[C@H]1C(=O)N[C@@H](Cc1ccccc1)C(=O)N1CCC[C@H]1C(=O)N[C@@H](CCC(N)=O)C(=O)N1CCC[C@H]1C(=O)N[C@@H](CCC(=O)O)C(=O)N[C@@H](CC(C)C)C(=O)N1CCC[C@H]1C(=O)N[C@@H](Cc1ccc(O)cc1)C(=O)N1CCC[C@H]1C(=O)N[C@@H](CCC(N)=O)C(=O)N1CCC[C@H]1C(=O)N[C@@H](CCC(N)=O)C(N)=O) [Peptide 1]		100 % of max	14 % of max	26 % of max	25 % of max	43 % of max	6 % of max	43 % of max	7 % of max	33	11 % of max	22 % of max	25 % of max	0 % of max	9 % of max	13	no more than two-thirds as active as Peptide 14	the most active of this group of related peptides
(pE)QPPFSEQEQPVLPQ-amide (N-terminal pyroglutamate; C-terminal amide) [Peptide 13]	weak or not distinguishable from medium alone	47 % of max	3 % of max	0 % of max	5 % of max	1 % of max	0 % of max	0 % of max	0 % of max	7	6 % of max	6 % of max	0 % of max	0 % of max	0 % of max	2		
(pE)QPYPQPELPYPQPQ-amide ([pGlu]QPYPQPELPYPQPQ-NH2; SMILES CC(C)C[C@H](NC(=O)[C@H](CCC(=O)O)NC(=O)[C@@H]1CCCN1C(=O)[C@H](CCC(N)=O)NC(=O)[C@@H]1CCCN1C(=O)[C@H](Cc1ccc(O)cc1)NC(=O)[C@@H]1CCCN1C(=O)[C@H](CCC(N)=O)NC(=O)[C@@H]1CCC(=O)N1)C(=O)N1CCC[C@H]1C(=O)N[C@@H](Cc1ccc(O)cc1)C(=O)N1CCC[C@H]1C(=O)N[C@@H](CCC(N)=O)C(=O)N1CCC[C@H]1C(=O)N[C@@H](CCC(N)=O)C(N)=O) [Peptide 15]		46 % of max	5 % of max	24 % of max	5 % of max	6 % of max	4 % of max	100 % of max	7 % of max	25	11 % of max	17 % of max	31 % of max	6 % of max	0 % of max	13	no more than two-thirds as active as Peptide 14	
